The target of experiment [1] is T1, lipoxygenase (Rattus norvegicus, UniProt P12527).
T1 construct: release of LTB4 from neutrophilic granulocytes (PMN) of the rat; endogenous in cells; host or cells: rat neutrophilic granulocytes (PMN)
T1 sequence (P12527 1-673): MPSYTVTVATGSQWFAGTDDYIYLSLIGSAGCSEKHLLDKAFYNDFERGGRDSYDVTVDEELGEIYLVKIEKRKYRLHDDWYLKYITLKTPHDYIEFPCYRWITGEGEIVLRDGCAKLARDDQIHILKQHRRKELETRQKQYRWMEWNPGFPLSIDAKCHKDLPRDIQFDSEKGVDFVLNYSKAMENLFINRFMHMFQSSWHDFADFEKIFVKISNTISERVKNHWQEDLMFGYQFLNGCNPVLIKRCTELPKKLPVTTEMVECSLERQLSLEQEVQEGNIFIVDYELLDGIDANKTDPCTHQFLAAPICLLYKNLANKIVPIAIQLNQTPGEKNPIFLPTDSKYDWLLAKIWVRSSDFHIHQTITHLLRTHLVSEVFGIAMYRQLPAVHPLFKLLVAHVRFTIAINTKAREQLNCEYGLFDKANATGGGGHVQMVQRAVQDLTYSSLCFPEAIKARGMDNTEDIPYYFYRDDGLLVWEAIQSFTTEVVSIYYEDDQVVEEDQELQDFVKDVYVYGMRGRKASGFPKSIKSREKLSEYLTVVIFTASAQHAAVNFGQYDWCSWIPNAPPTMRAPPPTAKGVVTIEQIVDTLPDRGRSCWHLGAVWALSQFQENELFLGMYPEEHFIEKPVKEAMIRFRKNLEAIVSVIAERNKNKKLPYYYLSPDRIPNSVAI
The experiment can be described thus: inhibition of arachidonic acid metabolism via the lipoxygenase route: LTB4 release from PMN of the rat after stimulation with Ca ionophor, reverse phase HPLC. It counts as cell-based. Conditions: read-out: % inhibition of lipoxygenase at 1 × 10^-5 mol/l.

The subject of experiment [2] is oedema induced by carrageenan in the rat paw. Kind of experiment: inhibition of carrageenan-induced oedema in the rat paw (Winter et al., modified). It counts as in vivo. Conditions: po, read-out: % inhibition of carrageenan oedema at 2.5 mg/kg orally.
Experiment [3] deals with T2, cyclooxygenase (Mus musculus, UniProt P22437).
T2 construct: endogenous in cells
T2 sequence (P22437 27-602): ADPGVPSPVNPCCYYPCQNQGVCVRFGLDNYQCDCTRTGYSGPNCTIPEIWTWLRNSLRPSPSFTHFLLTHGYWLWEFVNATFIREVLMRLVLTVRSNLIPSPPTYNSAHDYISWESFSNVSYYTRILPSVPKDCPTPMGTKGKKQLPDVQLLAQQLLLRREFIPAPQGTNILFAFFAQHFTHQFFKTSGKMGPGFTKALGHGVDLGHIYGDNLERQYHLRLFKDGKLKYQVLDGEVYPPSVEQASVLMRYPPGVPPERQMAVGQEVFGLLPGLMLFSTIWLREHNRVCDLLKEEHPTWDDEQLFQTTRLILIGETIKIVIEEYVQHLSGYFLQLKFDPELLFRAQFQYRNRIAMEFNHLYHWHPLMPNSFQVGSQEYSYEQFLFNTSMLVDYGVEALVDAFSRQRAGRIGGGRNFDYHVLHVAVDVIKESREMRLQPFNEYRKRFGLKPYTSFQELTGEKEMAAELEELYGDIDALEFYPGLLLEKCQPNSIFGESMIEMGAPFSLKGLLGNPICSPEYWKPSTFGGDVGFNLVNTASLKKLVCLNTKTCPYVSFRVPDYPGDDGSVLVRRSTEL
The experiment can be described thus: inhibition of arachidonic acid metabolism via the cyclooxygenase route (Brune et al.). It counts as biochemical. The settings on record: read-out: % inhibition of cyclooxygenase at 1 × 10^-5 mol/l.

Experiment [4] has as its system PMN. Kind of experiment: inhibition of aggregation of PMN stimulated by LTB4 (Cunningham et al.). It counts as cell-based. Conditions: 1 × 10^-4 mol/l.
The mark [5] stands for this setting: 1 × 10^-5 mol/l, LTB4 release from rat PMN, Ca ionophor.
[6] abbreviates: rat paw, 2.5 mg/kg orally, λ-carrageenan 0.25% suspension in physiological saline.

Where two headings read alike, the source gives them in different places.

As to `O=C1C=C(O)C(=O)c2ccccc21` [Compound 1], the inhibition at 10 µM in experiment [1] is 70%; in experiment [3] it was 31%. Besides, in experiment [2] (Rattus norvegicus), the inhibition in vivo at 2.5 mg/kg is 34%.
With `COC1=CC(=O)c2ccccc2C1=O` [Compound 2], the inhibition at 10 µM in experiment [1] (setting [5]) came to 98%; in experiment [3], 78%. Further, in experiment [2] (setting [6]), the inhibition in vivo at 2.5 mg/kg is 29%. Besides, the inhibition at 100 µM in experiment [4] came out at 76%.
As for `COCCOC1=CC(=O)c2ccccc2C1=O` [Compound 3], the inhibition at 10 µM in experiment [1] (setting [5]) was 100%; in experiment [3], 45%. For the same compound, in experiment [2] (setting [6]), the inhibition in vivo at 2.5 mg/kg was determined as 38%.
With `COC1=C(OC)C(=O)c2ccccc2C1=O` [Compound 4], the inhibition at 10 µM turned out to be 100% in experiment [1] (setting [5]) and 37% in experiment [3]. In experiment [2] (setting [6]), the inhibition in vivo at 2.5 mg/kg turned out to be 36%. In experiment [4], the inhibition at 100 µM turned out to be 79%.
Consider `NC1=CC(=O)c2ccccc2C1=O` [Compound 5], for which the inhibition at 10 µM in experiment [1] was 100%; in experiment [3], 55%. Further, the inhibition in vivo at 2.5 mg/kg in experiment [2] (Rattus norvegicus) amounted to 48%.
Regarding `NC1=CC(=O)c2cc(S(N)(=O)=O)ccc2C1=O` [Compound 6], the inhibition at 10 µM in experiment [1] (setting [5]) is 100%; in experiment [3], 65%. Also, the inhibition in vivo at 2.5 mg/kg in experiment [2] (setting [6]) turned out to be 39%. In addition, in experiment [4], the inhibition at 100 µM stood at 77%.
As for `CC(=O)NC1=CC(=O)c2ccccc2C1=O` [Compound 7], the inhibition at 10 µM in experiment [1] (setting [5]) turned out to be 100%; in experiment [3] it was 65%. Moreover, in experiment [2] (setting [6]), the inhibition in vivo at 2.5 mg/kg was found to be 32%. Also, the inhibition at 100 µM in experiment [4] amounted to 49%.
Taken in the same sequence, the figures for `CC1=C(SCC(=O)O)C(=O)c2ccccc2C1=O` [Compound 8] were 100%, 72%, 41% and 34%.
For `CNC(=O)CSC1=C(C)C(=O)c2ccccc2C1=O` [Compound 9] the same measures were 100%, 89%, 25% and 100%.
In the case of `CC1=C(SCC(=O)NC(C)C)C(=O)c2ccccc2C1=O` [Compound 10], the inhibition at 10 µM is 100% in experiment [1] (setting [5]) and 89% in experiment [3]. Moreover, the inhibition in vivo at 2.5 mg/kg in experiment [2] (setting [6]) is 45%. The compound also came in with an inhibition at 100 µM in experiment [4] of 95%.
Taken in the same sequence, the figures for `O=C(CSC1=C(SCC(=O)NCCO)C(=O)c2ccccc2C1=O)NCCO` [Compound 11] were 80%, 50%, 45% and 36%.
With `C=CCNC1=CC(=O)c2cc(S(N)(=O)=O)ccc2C1=O` [Compound 12, 2-Allylamino-6-sulphamoyl-1,4-naphthoquinone], the inhibition at 10 µM in experiment [1] (setting [5]) is 100%; in experiment [3], 38%. The inhibition in vivo at 2.5 mg/kg in experiment [2] (setting [6]) came to 39%. This compound also came in with an inhibition at 100 µM in experiment [4] of 72%.
As to `CCC(=O)NC1=C(OCCOC)C(=O)c2ccccc2C1=O` [Compound 13, 2-Propionylamino-3-(2-methoxyethoxy)-1,4-naphthoquinone], in experiment [1] (setting [5]), the inhibition at 10 µM was found to be 100%. In addition, in experiment [2] (setting [6]), the inhibition in vivo at 2.5 mg/kg came to 48%.
Taken in the same sequence, the figures for `CCOC1=C(NC(C)=O)C(=O)c2ccccc2C1=O` [Compound 14, 2-Acetylamino-3-ethoxy-1,4-naphthoquinone] were 100% and 49%.
